Data taken from EP3034496A1, “NOVEL SOLVATES OF N-[2-[(1S)-1-(3-ETHOXY-4-METHOXYPHENYL)-2-(METHYLSULFONYL)ETHYL]-2,3-DIHYDRO-1,3-DIOXO-1H-ISOINDOL-4-YL]ACETAMIDE” (LEK Pharmaceuticals d.d., priority 2014, dated 2016).
Like-named read-outs stand apart in the source and are kept apart here.

Legend:
[1] = cited from earlier work; for solubility in H2O: value of the organic solvent incorporated into the crystal structure, not of the crystal form
[2] = 90th percentile of the particle size distribution as measured by length, from WO 2009/120167 A1, cited from earlier work
[3] = gravimetric moisture sorption desorption isotherm; assay type: physicochemical; details: 0 to 95% relative humidity, (25.0 ± 0.1) °C
Procedure: Gravimetric moisture sorption desorption isotherm was acquired using a SPS-11 moisture sorption analyzer (MD Messtechnik, Ulm, D). The sample was weighed into an Aluminium sample holder. […] The water content of the samples was determined after the moisture sorption/ desorption experiments with a TGA 7 system (Perkin Elmer, Norwalk, Ct., USA) using the Pyris 2.0 software according to the above described method.

Molecule: CCOC(C)=O [ethyl acetate]
- aqueous solubility / water solubility ([1]; organic solvent): 8.7 % w/w
- solubility in H2O [1]: 8.7 %w/w

Molecule: CC#N [acetonitrile]
- solubility in H2O [1]: 100 %w/w

Molecule: CCO [ethanol]
- solubility in water (in words) ([1]; organic solvent): freely soluble in water
- solubility in H2O [1]: 100 %w/w

Molecule: CCOc1cc([C@@H](CS(C)(=O)=O)N2C(=O)c3cccc(NC(C)=O)c3C2=O)ccc1OC [Form C, N-[2-[(1S)-1-(3-ethoxy-4-methoxyphenyl)-2-(methylsulfonyl)ethyl]-2,3-dihydro-1,3-dioxo-1H-isoindol-4-yl]acetamide]
- D90 ([2]; listed as C): < 12 microm

Molecule: CCOc1cc([C@@H](CS(C)(=O)=O)N2C(=O)c3cccc(NC(C)=O)c3C2=O)ccc1OC [Form G, N-[2-[(1S)-1-(3-ethoxy-4-methoxyphenyl)-2-(methylsulfonyl)ethyl]-2,3-dihydro-1,3-dioxo-1H-isoindol-4-yl]acetamide]
- D90 ([2]; listed as G): < 18 microm

Molecule: CCOc1cc([C@@H](CS(C)(=O)=O)N2C(=O)c3cccc(NC(C)=O)c3C2=O)ccc1OC [Form E, N-[2-[(1S)-1-(3-ethoxy-4-methoxyphenyl)-2-(methylsulfonyl)ethyl]-2,3-dihydro-1,3-dioxo-1H-isoindol-4-yl]acetamide]
- D90 ([2]; listed as E): < 18 microm

Molecule: CC(C)=O [acetone]
- solubility in water (in words) ([1]; organic solvent): freely soluble in water
- solubility in H2O [1]: 100 %w/w

Molecule: N-[2-[(1S)-1-(3-ethoxy-4-methoxyphenyl)-2-(methylsulfonyl)ethyl]-2,3-dihydro-1,3-dioxo-1H-isoindol-4-yl]acetamide ethanol solvate
- hygroscopicity [3]: non-hygroscopic (compounds showing a mass change of less than 2 weight% based on the weight of the compound in the range of from 0 to 95% relative humidity at (25.0 ± 0.1) °C)
- mass change ([3]; based on the weight of the crystalline ethanol solvate): less than 0.5 % w/w

Molecule: ClCCl [methylene chloride]
- solubility in H2O [1]: 1.6 %w/w

Molecule: CCOc1cc([C@@H](CS(C)(=O)=O)N2C(=O)c3cccc(NC(C)=O)c3C2=O)ccc1OC [Form D, N-[2-[(1S)-1-(3-ethoxy-4-methoxyphenyl)-2-(methylsulfonyl)ethyl]-2,3-dihydro-1,3-dioxo-1H-isoindol-4-yl]acetamide]
- D90 ([2]; listed as D): < 18 microm
